Data reported in US7476511B2, “Method of detecting and analyzing paclitaxel-mimetic compounds” (priority 2001, dated 2009).

Experiments:
[1] = system: paclitaxel binding site of microtubules; test: Binding of Flutax-2 to cross-linked microtubules by fluorescence anisotropy; parameters: species or system bovine; details: GAB-GDP buffer at 25° C.
Experimental: The intensity of fluorescence of Flutax-2 changes very little with the binding to microtubules. There is a small change in the excitation maximum from 494 nm to 495 nm (isosbestic point at 500 nm ) and a blue shift in emission from 523 nm to 520 nm (not shown here; isosbestic point at 525 nm; Diaz, J. F. et al.). […] The excitation anisotropy spectrum of a 50 nM solution of microtubule sites/Flutax-2 was compared with the spectrum of a similar solution in which the binding sites were blocked by an excess of paclitaxel and of free Flutax-2. […] The anisotropy values determined for the 495 nm band (emission 520 nm; GAB buffer containing glycerol, 25° C.) were: free Flutax-2 (50 nm ), rmin=0.055; in the presence of microtubules blocked with paclitaxel, r=0.060; Flutax-2 specifically bound to the microtubules, rmax=0.29 (the last was determined by valuation of 50 nm Flutax-2 with growing concentrations of microtubules). These changes are consistent with a strong immobilisation of the fluorophore by the binding. […]
Tubulin from bovine brain was purified and stored, and its concentration was measured as has been described (Andreu, J. M. et al.). […]
Fluorescence spectra were obtained corrected with a Fluorolog-3-221 photon count instrument (Jobin Yvon-Spex, Longlumean, France), with an emission bandwidth of 5 nm and excitation of […] at 25° C. […] The multiple measurements of anisotropy were made with a PolarStar microplate reader (BMG Labtechnologies, Offenburg, Germany) at 25° C. The solutions were excited with 200 pulses of vertically polarised light (band-pass filter 485-P, 480-492 nm ) and the emission was simultaneously analysed with vertical and horizontal polarisation filters (band-pass 520-P, 515-550 nm ). […] The values of well blanks with microtubules and without Flutex-2 were subtracted from the values of fluorescence intensity (the blanks typically represented less than 4% of the measurement). […]

[2] = system: paclitaxel binding site of microtubules; test: Displacement of 3H-paclitaxel from microtubules by sedimentation and scintillation count; details: 1 mg mL^−1 bovine serum albumin present
From the text: In a series of control measurements, the displacement of the interaction of ^3H-paclitaxel with microtubules by baccatine III and Flutax-2 was evidenced by sedimentation and scintillation count. […] This confirmed that baccatine III is recognised by the paclitaxel binding site of microtubules. Nevertheless, with the aim of having the majority of the radioactive ^3H-paclitaxel tracer in solution, instead of being absorbed into the polycarbonate tube of the table-top ultracentrifuge, it was necessary to include 1 mg mL^−1 of bovine serum albumin, which binds the paclitaxel (keeping it available for interaction with the microtubules) and also the Flutax-2 (decreasing its apparent affinity). These adsorption processes make it impossible to have any direct rigorous measurement of the affinity of the binding of paclitaxel to microtubules in our hands, and therefore of the affinity of its competitors using paclitaxel as a reference ligand in these diluted tests. The additional disadvantages of the binding tests of ^3H-paclitaxel in comparison with the homogeneous test of the anisotropy of fluorescent taxoid are the operations of centrifugation, separation and radioactive measurement that are required. […]

[3] = system: cross-linked microtubules; test: Concentration of taxoid binding sites by sedimentation and spectrophotometric measurement of Flutax-2; parameters: species or system bovine; details: 5 μM Flutax-2, GAB-GDP buffer, 25° C.
Experimental: Their concentration of total tubulin was measured after diluting them in 1% SDS using an extinction coefficient of 107,000 M^−1 cm^−1 at 275 nm (Diaz, J. F. and Andreu, J. M.). […] The concentration of binding sites of taxoid was determined by addition of growing concentrations of microtubules cross-linked to 5 μM Flutax-2 in the GAB-GDP buffer, sedimentation (Diaz, J. F. et al., 50,000 rpm in a Beckman TLA 120 rotor at 25° C.) and spectrophotometric measurement of Flutax-2. It was observed that the preparations of cross-linked microtubules bound 0.75±0.05 of Flutax-2 per total tubulin (in other words, a minimum of 95% of the bound tubulin was active binding this ligand). The control measurements using ^3H-paclitaxel and liquid scintillation gave values similar to Flutax-2. Once the anisotropy values of Flutax bound to microtubule and free were determined, the number of sites could also be determined by valuation of diluted solutions of microtubules cross-linked with Flutax-2 (see further below). The concentration of binding sites of taxoids of the preparations of cross-linked microtubules turned out to be stable in liquid nitrogen, decaying at speeds between 0.02 and 0.05 day^−1 at 4° C. (mean lives of five and two weeks respectively). The cross-linked microtubules were used within one average life starting from the preparation.

CC(=O)O[C@H]1C(=O)[C@]2(C)[C@@H](OC(=O)[C@H](C)NC(=O)c3ccc4c(c3)C(=O)OC43c4cc(F)c(O)cc4Oc4cc(O)c(F)cc43)C[C@H]3OC[C@@]3(OC(C)=O)[C@H]2[C@H](OC(=O)c2ccccc2)[C@]2(O)C[C@H](OC(=O)[C@H](O)[C@@H](NC(=O)c3ccccc3)c3ccccc3)C(C)=C1C2(C)C [Flutax-2, 7-O-[N-(2,7-difluoro-4′-fluoresceincarbonyl)-L-alanyl]paclitaxel]
equilibrium binding constant of Flutax-2 (FIG. 2 legend) [1]: 1.5e+08 M⁻¹ | equilibrium constant of the binding Kb (binding isotherm from change of anisotropy) [1]: 1.15e+08 M⁻¹ | apparent affinity compared with fluorescence anisotropy tests [2]: seven times lower | Flutax-2 bound per total tubulin [3]: 0.75±0.05
